Experimental data as given in ChEMBL document CHEMBL1137949, “Mechanism of action of pyridazine analogues on protein tyrosine phosphatase 1B (PTP1B)” (Bioorg Med Chem Lett, 2004).
Values belong to the molecule of their own block, whether it stands above or below them. The source made the active and inactive calls. The rule behind the calls is not given here.

How the values were obtained:
[1] = Enzymatic activity of protein tyrosine phosphatase 1B in the presence (10 uM) was measured using para-nitrophenylphosphate (pNPP) as the substrate; active
[2] = Inhibitory activity against Protein-tyrosine phosphatase activity; active
[3] = Enzymatic activity of protein tyrosine phosphatase 1B in the presence (10 uM) was measured using para-nitrophenylphosphate (pNPP) as the substrate in the presence of TCEP (1 mM) and catalase (25 ug/mL); activity not restored
[4] = Enzymatic activity of protein tyrosine phosphatase 1B in the presence (10 uM) was measured using para-nitrophenylphosphate (pNPP) as the substrate in the presence of TCEP (1 mM); inhibited
[5] = Enzymatic activity of protein tyrosine phosphatase 1B in the presence (10 uM) was measured using para-nitrophenylphosphate (pNPP) as the substrate in the presence of […] (1 mM); inhibited
[6] = Enzymatic activity of protein tyrosine phosphatase 1B in the presence (10 uM) was measured using para-nitrophenylphosphate (pNPP) as the substrate in the presence of […] (1 mM) and catalase (25 ug/mL); abolished the inhibitory effect

SMILES: O=C(O)CCP(CCC(=O)O)CCC(=O)O
Activity [1]: Active

SMILES: CC1(C)C=C2C(=NN(c3ccccc3)C(N)=C2C#N)CO1
Activity [1]: Active

Activity [2]: Active
SMILES: O=C1CC(=O)N(c2ccccc2)O1

SMILES: CC1(C)C=C2C(=NN(c3ccccc3)C(N)=C2C#N)CO1.O=C(O)CCP(CCC(=O)O)CCC(=O)O
Activity [3]: activity not restored
Activity [4]: activity not restored

SMILES: CC1(C)C=C2C(=NN(c3ccccc3)C(N)=C2C#N)CO1.OC(CS)C(O)CS
Activity [5]: abolished the inhibitory effect
Activity [6]: abolished the inhibitory effect

Activity [2]: Active
SMILES: OO

Activity [1]: Active
SMILES: OC(CS)C(O)CS (centres undefined)
